Test results published in patent publication US12440471B2, “Compositions and methods for the treatment of bronchopulmonary dysplasia (BPD) and BPD-associated pulmonary hypertension” (AyuVis Research, Inc., priority 2021, dated 2025).

How the values were obtained:
[1] = Oral PK of nanomilled formulations in adult SD rats; type: in vivo, rat; settings: rat, in vivo, po, 100 mg/kg
Protocol: The test item, the stabilizer (HPC-SSL) and the surfactant (SDS) were accurately weighed and transferred in a 15-mL amber glass jar charged with 6 mL of yttrium-stabilized zirconia beads (0.8 mm). The suspension was brought to final weight with water in order to achieve the desired final concentration. The formulation was mixed using a vortex for at least 1 minute and then homogenized using a roller mill (Unitized Jar Mill, Model 755 RMV from U.S. Stoneware (purchased from Fisher Scientific Canada cat #08-381-1) at 50 rpm for 48 hours.
For the animal study, the suspensions prepared at 50 mg/mL were diluted to 10 mg/mL using a blank vehicle prepared using the same proportions of excipients as those indicated in Table I. By diluting the concentrated suspension of AVR-84 a clear solution was obtained whereas for AVR-48 the solution was a homogeneous cloudy solution.
Animals and dosing: The male SD rats (N=3) were obtained from Charles River. Each animal was weighed before the administration of the test item. […] At the specified time points, t=15′, 30′, 1 h, 2 h, 3 h, 4 h, 6 h, 8 h and 24 h (N=3), blood (100 μL) was collected via the saphenous vein using MINIVETTE® POCT K3-EDTA. The blood samples were centrifuged for 10 min at 965 g and 4° C. within 30 min of collection, to obtain plasma. Plasma samples were kept frozen at −80° C. The plasma samples were thawed on ice and kept on ice during the sample preparation. Thirty μL of plasma samples were mixed with 75 μL of precipitation solution (80% acetonitrile and 20% methanol containing IS) was added. Samples were mixed and centrifuged at 3500 rpm for 10 min at 4° C. Forty μL of the supernatant was transferred to a 96 well plate, and 80 μL of water+0.1% formic acid was added and analyzed using the in house developed HPLC method.

[2] = system: hyperoxia-exposed BPD mouse model; assay: Hyperoxia-exposed BPD mouse model: dose response and lung morphometry; type: in vivo; settings: mouse, in vivo
Protocol: Simultaneously, the AVR-48 nanosuspension formulation IN (0.11 mg/kg) was tested as well as in solution form, IP and IV (10 mg/kg) (through the facial vein), and confirmed that all routes of administration gave similar outcomes. […] From the PK study, as described above, the bioavailability of the drug in the plasma and lungs were similar when delivered as solution formulation via either IN or IP routes. As the goal of this study is to develop AVR-48 as a commercially viable and applicable therapeutic candidate for BPD, the IP route was selected as the preferred mode of drug delivery in neonatal murine pups, with the rationale that it would be easier to deliver the drug systemically to preterm babies IV, rather than the IN route. The results and outcome of all the routes of administration have been presented in a cumulative manner, as the endpoint was similar for all routes of administration. […] FIG. 1 is a dose response study of AVR-48 at different doses of […], given IP. ****p<0.0001. N=5-7 mice per group. 10 mg/kg (IP) was selected as the most efficacious dose. IP: intraperitoneal; Hyp: hyperoxia; BPD: Bronchopulmonary dysplasia.
Formulation of AVR-48 for efficacy and toxicokinetic studies. For the mouse dose response efficacy studies, AVR-48 was reconstituted in 0.9% sterile normal saline to give a final dose concentration of […] as a colorless solution, and injected IP (30 μl) on P2 and P4. The PLGA encapsulated AVR-48 or the GFP-tagged analog was resuspended in deionized sterile water to make a nanosuspension with final dose concentration of 0.025, 0.05 and 0.11 mg/kg/drop. The surfactant Curosurf® (Cheisi Parma, Italy), available commercially, was delivered IN at a volume of 3 μl per nostril, on P2 and P4. For the toxicokinetic study of AVR-48 in rat pups, a formulation of 10% DMSO, 20% tetraglycol, 20% PEG 400, and 50% sterile water was made fresh before administration (Shah, Das et al. 2021).
(§1) For the hyperoxia experiment, newborn pups were exposed to 100% hyperoxia (P0), along with their mothers, in cages in an airtight Plexiglas chamber (OxyCycler; Biospherix, Redfield, NY, USA) as described previously by the present inventors (Syed, Das et al., 2017, Leary, Das et al. 2019, Das, Acharya et al. 2020, relevant portions incorporated herein) for 4 consecutive days (till P4) and removed to RA on P5 to be recovered till P14, so as to emulate the human BPD condition. All pups were sacrificed on P14 for further experimental analyses. The pups without any hyperoxia exposure served as the corresponding RA (normoxia) controls.
Histology, immunohistochemistry and immunofluorescence. Both the RA control and BPD mice were anesthetized (using an overdose of a cocktail of xylazine-ketamine) and lung and heart tissues were harvested after perfusion and fixed overnight in 4% paraformaldehyde. Fixed tissues were then washed in fresh PBS, dehydrated using 70% ethanol, cleared, and embedded in paraffin to be sectioned and stained with hematoxylin and eosin (H&E) for lung morphometry or immunohistochemistry/immunofluorescence as previously described (Leary, Das et al. 2019, Das, Achaiya et al. 2020, Das, Curstedt et al. 2020). Immunofluorescence staining was done for Ki67 (Abcam, 1:10) and Von Wilebrand Factor (vWF-DAKO, 1:100) on lung paraffin sections following the protocol as described earlier (Leary, Das et al. 2019) while TUNEL staining was done following the manufacturer's instructions (Roche).
Morphometry and quantification. To study chord length, septal thickness and radial alveolar count in the lungs, RV, LV and IVS thickness, 5 μm-thick left-lobe lung and heart paraffin-embedded sections were stained with H&E. Multiple randomly chosen areas (at least 10 areas) from each section were photographed using 100× total magnification. […]

TLR4 = biological target: T1, TLR4 (Homo sapiens, UniProt O00206); assay: TLR4 assay: unbound TLR4 ELISA in PMA-stimulated THP-1 cell lysates; type: binding; settings: THP-1 human monocyte cells
T1 construct: Cell lysates were prepared, total protein was quantified and treated with different concentrations; host or cells: THP-1 cells stimulated with PMA for 48 h, then lysed
Protocol: FIG. 26A, TLR4 assay: 1×10^5 THP cells (ATCC) were seeded in 24 well plates and stimulated with phorbol myristyl actetate (PMA, 200 ng/mL) for 48 h. Cell lysates were prepared, total protein was quantified and treated with different concentrations (4, 16, 62.5 and 250 μM) of the AVR-48 for 2 h. ELISA was performed after to assess unbound TLR4 following manufacturer's instruction (Raybiotech). TLR4 IC50 of the AVR-48 was calculated using GraphPad Prism7.04.

[3] = system: hyperoxia-exposed BPD mouse model; assay: BPD mouse model: bronchoalveolar lavage fluid (BALF) analysis; type: in vivo; settings: 10 mg/kg; vs BPD group
Text: as §1
Bronchoalveolar lavage fluid (BALF) Analysis. Pups were sacrificed on PN14, and the trachea was cannulated with a small-caliber needle by instilling PBS endotracheally at […] pressure for 15 minutes. Two volumes of 300 μL of cold 1×PBS were instilled, gently aspirated, and pooled. Samples were centrifuged at 1000×g for 10 minutes at 4° C. The supernatant was collected, and total protein was quantified using the Pierce™ BCA Protein Assay Kit (Fisher Scientific Co, Houston, TX). The total cell count was done using the TC20 cell counter (BioRad, Hercules, CA). Similar method was followed for analyzing the protein concentration in BAL fluid collected from preterm lambs.

[4] = system: human cord blood monocytes (CBMC); assay: Cytokines in human cord blood monocytes (CBMC); type: cell-based; settings: compound alone (10 μM) or with LPS, compared with only LPS
Text: IL-12p40, is a marker for the innate immune response to infection and is down regulated in CBMC.

T1 sequence (O00206 24-839): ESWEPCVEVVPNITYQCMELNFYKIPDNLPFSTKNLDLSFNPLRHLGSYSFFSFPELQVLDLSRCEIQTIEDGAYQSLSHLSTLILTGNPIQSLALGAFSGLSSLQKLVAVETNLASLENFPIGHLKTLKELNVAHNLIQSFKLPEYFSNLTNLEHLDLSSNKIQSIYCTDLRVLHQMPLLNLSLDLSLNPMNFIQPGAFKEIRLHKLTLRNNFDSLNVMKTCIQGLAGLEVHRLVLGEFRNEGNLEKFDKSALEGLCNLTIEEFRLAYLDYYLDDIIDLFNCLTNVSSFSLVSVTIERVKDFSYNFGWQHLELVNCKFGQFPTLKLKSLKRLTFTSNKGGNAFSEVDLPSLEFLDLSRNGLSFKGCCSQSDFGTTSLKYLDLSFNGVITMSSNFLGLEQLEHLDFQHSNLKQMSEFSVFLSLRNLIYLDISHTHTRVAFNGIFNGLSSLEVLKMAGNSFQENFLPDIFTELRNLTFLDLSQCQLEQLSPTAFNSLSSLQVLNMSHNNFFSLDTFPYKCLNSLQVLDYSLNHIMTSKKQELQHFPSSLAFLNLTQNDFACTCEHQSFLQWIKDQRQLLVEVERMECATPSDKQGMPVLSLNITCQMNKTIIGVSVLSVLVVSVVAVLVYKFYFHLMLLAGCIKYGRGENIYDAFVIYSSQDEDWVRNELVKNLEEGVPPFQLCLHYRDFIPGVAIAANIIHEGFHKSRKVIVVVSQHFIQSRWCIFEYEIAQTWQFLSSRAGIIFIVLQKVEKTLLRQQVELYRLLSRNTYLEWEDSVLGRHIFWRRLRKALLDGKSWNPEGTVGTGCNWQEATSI

CC(=O)N[C@@H]1C(Oc2ccc3nonc3c2)OC(CO)C(O)C1O (stereo partly shown) [AVR-84]
Cmax [1]: 4.56 µM
Tmax [1]: 0.5 ± 0.0 h
half-life (T v2) [1]: 1.66 ± 1.0 h
plasma concentration profile [1]: linear decline in drug concentration

CC(=O)NC1[C@H](Oc2ccc(C(=O)N[C@@H]3OC(CO)[C@@H](O)[C@H](O)C3NC(C)=O)cc2)OC(CO)[C@@H](O)[C@@H]1O (stereo partly shown) [Compound 3]
inflammatory cytokines in neonatal mouse pups with BPD [2]: decrease inflammatory cytokines
binding to TLR4 (TLR4): bind TLR4

CC(=O)N[C@@H]1C(Oc2ccc(B3OC(C)(C)C(C)(C)O3)cc2)OC(CO)C(O)C1O (stereo partly shown) [Compound 32]
inflammatory cytokines in neonatal mouse pups with BPD [2]: decrease inflammatory cytokines
binding to TLR4 (TLR4): bind TLR4

CCOC(=O)C1=CCCC[C@H]1S(=O)(=O)Nc1ccc(F)cc1Cl [TAK 242, reference compound]
total inflammatory cells in BALF [3]: did not affect
IL-12p40 response [4]: decrease the LPS induced increase in IL-12p40 level
